In patent US20110060156A1, “Pyruvate Derivatives with Neuroprotective Effect, Process for Preparing the Same and Pharmaceutical Composition Comprising the Same” (S.H. PHARMA., LTD., priority 2008, published 2011):
Structures can show the parent of a compound that is named as a salt.

What was measured:
[1] = system: model of focal ischemic stroke (middle cerebral artery occlusion, MCAO); experiment: Cerebral infarction inhibition in animal model of focal ischemic stroke (MCAO 1 hour, TTC staining, infarct volume); assay type: in vivo, rat; details: for inhibition effect of cerebral infarction: 30 minutes before MCAO (1 hour)
Protocol: A model of focal ischemic stroke in the rat according to the Longa's method (1989) was used. The animal model of stroke was established by occluding the middle cerebral artery (MCA) for 1 hour using nylon suture (middle cerebral artery occlusion, MCAO). In order to investigate the effect of pyruvate derivatives according to the present invention on cerebral ischemia, a rat was decapitated after reperfusion. The whole brain was sliced into 2 mm-thick coronal slices. The slices were immediately stained by immersing in 1% 2,3,5-triphenyl tetrazolium chloride (TTC). After keeping in 4% paraformaldehyde solution at 37° C. for 15 minutes, the brain slices were subjected to measurement and analysis using Quantity One software (Bio-Rad, Hercules, Calif., USA).

[2] = system: stroke animal model (ischemia-reperfusion); details: cited from earlier work
[3] = 1 mg/kg intravenously, 6 hours after reperfusion
[4] = 1 mg/kg intravenously, 12 hours after reperfusion
[5] = 5 mg/kg intravenously, 6 hours after reperfusion
[6] = 5 mg/kg intravenously, 12 hours after reperfusion
[7] = 10 mg/kg intravenously, 6 hours after reperfusion
[8] = 10 mg/kg intravenously, 12 hours after reperfusion

## CC(=O)C(=O)Oc1ccccc1C(=O)O [2-(2-oxopropanoyloxy)benzoic acid]
[1]; 1 mg/kg intravenously
  inhibition effect of cerebral infarction: 42.0%
[1]; [3]
  change in the infarct volume: no change
[1]; [4]
  change in the infarct volume: no change
[1]; 5 mg/kg intravenously
  inhibition effect of cerebral infarction: 90.2%
[1]; [5]
  infarct volume reduced to, as compared to the control group: 47.5%
[1]; [6]
  infarct volume reduced to, as compared to the control group: 57.4%
[1]; 10 mg/kg intravenously
  inhibition effect of cerebral infarction: 89.5%
[1]; [7]
  infarct volume reduced to, as compared to the control group: 26.6%
[1]; [8]
  infarct volume reduced to, as compared to the control group: 64.3%

## CC(=O)C(=O)N(C)CCC(Oc1ccc(C(F)(F)F)cc1)c1ccccc1 (stereo not shown) [N-methyl-2-oxo-N-(3-phenyl-3-(4-(trifluoromethyl)phenoxy)propyl)propanamide]
[1]; [7]
  infarct volume reduced to, as compared to the control group: 16.0%

## CC(=O)C(=O)Oc1cc(C(F)(F)F)ccc1C(=O)O [2-(2-oxopropanoyloxy)-4-(trifluoromethyl)benzoic acid]
[1]; 5 mg/kg intravenously, MCAO 1 hour, time not stated in b180 (FIG. 8: 6 hours following MCAO)
  inhibition effect of cerebral infarction as compared to the control group: 71.3%

## CC(=O)C(=O)NCCC(Oc1ccc(C(F)(F)F)cc1)c1ccccc1 (stereo not shown) [2-oxo-N-(3-phenyl-3-(4-(trifluoromethyl)phenoxy)propyl)propanamide]
[1]; [7]
  infarct volume reduced to, as compared to the control group: 58.7%

## CC(=O)C(=O)Oc1cc(C(F)(F)F)ccc1C(=O)O (as salt: potassium) [2-(2-oxopropanoyloxy)-4-(trifluoromethyl)benzoic acid]
other
  melting point: 163 °C

## CC(=O)C(=O)Oc1ccc(NCc2c(F)c(F)c(C(F)(F)F)c(F)c2F)cc1C(=O)O [2-(2-oxopropanoyloxy)-5-(2,3,5,6-tetrafluoro-4-(trifluoromethyl)benzylamino)benzoic acid]
other
  melting point: 128 °C
[1]; 1 mg/kg intravenously
  inhibition effect of cerebral infarction: 20.2%
[1]; [3]
  change in the infarct volume: no change
[1]; [4]
  change in the infarct volume: no change
[1]; 5 mg/kg intravenously
  inhibition effect of cerebral infarction: 90.9%
[1]; [5]
  infarct volume reduced to, as compared to the control group: 24.5%
[1]; [6]
  infarct volume reduced to, as compared to the control group: 56.8%
[1]; 10 mg/kg intravenously
  inhibition effect of cerebral infarction: 88.4%
[1]; [7]
  infarct volume reduced to, as compared to the control group: 33.3%
[1]; [8]
  infarct volume reduced to, as compared to the control group: 62.4%

## CCOC(=O)C(C)=O [ethyl pyruvate]
[2]; abdominally administered within 12 hours after ischemia-reperfusion
  infarct size reduced to: ≤ 50%
[2]; treatment within 24 hours
  infarct size reduced by: about 20%
